20 compounds from patent publication US12029739B2, “SHP2 inhibitor and use thereof” (KANAPH THERAPEUTICS INC., priority 2021, dated 2024) can be followed below.

pIC50: −log10 of the molar value. Like-named read-outs stand apart in the source and are kept apart here.

Assay [1] deals with phospho-ERK in MIA PaCa2 or H358 cells. In words: Phospho-ERK assay (AlphaLisa). The class given is cell-based. Particulars: for pIC50: MIA PaCa2 or H358 cells, compound incubated 1.5 hours, read-out: IC50 (p-ERK); for IC50: read-out: IC50 (p-ERK, nM).
Assay [2] addresses T1, SHP2 (full length) (Homo sapiens, UniProt Q06124).
T1 construct: SHP2 (full length, diluted to 100 pM final concentration in reaction buffer, BPS bioscience, US); purchased BPS bioscience, US
T1 sequence (Q06124 1-593): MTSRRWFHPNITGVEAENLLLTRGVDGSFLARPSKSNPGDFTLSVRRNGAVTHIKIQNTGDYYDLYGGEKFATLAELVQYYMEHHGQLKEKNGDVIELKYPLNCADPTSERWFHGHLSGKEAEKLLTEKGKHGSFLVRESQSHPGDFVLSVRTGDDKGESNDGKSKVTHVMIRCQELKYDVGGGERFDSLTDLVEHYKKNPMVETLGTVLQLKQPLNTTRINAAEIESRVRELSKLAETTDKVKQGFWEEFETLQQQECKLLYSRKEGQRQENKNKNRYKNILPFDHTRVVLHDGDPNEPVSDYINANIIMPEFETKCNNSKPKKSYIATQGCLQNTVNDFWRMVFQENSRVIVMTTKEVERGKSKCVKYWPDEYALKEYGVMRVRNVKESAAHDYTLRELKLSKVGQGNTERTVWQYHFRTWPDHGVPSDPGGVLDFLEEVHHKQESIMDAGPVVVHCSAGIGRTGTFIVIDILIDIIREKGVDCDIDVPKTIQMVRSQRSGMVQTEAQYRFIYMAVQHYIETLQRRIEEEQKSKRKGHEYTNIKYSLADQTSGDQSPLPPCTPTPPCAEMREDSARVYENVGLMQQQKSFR
In words: Phosphatase assay (PTPase assay) with DiFMUP substrate. The note with it: SHP2 activated with SHP2 activating peptide, DiFMUP 80 μM, 2 hours, fluorescence; for pIC50: read-out: IC50 (PTPase aS say); for IC50: IC50 (PTPase aS say, nM). The class given is biochemical.

In the case of `COCCn1cnc2ccc(Sc3cnc(N4CCC5(CC4)Cc4ncsc4[C@H]5N)cn3)c(Cl)c2c1=O` [Example 144, 6-[5-[(6S)-6-aminospiro[4,6-dihydrocyclopenta[d]thiazole-5,4′-piperidin]-1′-yl]pyrazin-2-yl]sulfanyl-5-chloro-3-(2-methoxyethyl)quinazolin-4-one], the results for the pIC50 in assay [1] (1.5 h) and in assay [2] were greater than 7.35 and greater than 8.52, respectively.
Take `COCCn1cnc2ccc(Sc3cnc(N4CCC5(CC4)CO[C@@H](C)[C@H]5N)cn3)c(Cl)c2c1=O` [Example 64, 6-((5-((3S,4S)-4-amino-3-methyl-2-oxa-8-azaspiro[4.5]decan-8-yl)pyrazin-2-yl)thio)-5-chloro-3-(2-methoxyethyl)quinazolin-4(3H)-one]: the negative-log IC50 (pIC50) in assay [1] (1.5 h) is greater than 7.35; in assay [2], greater than 8.52.
As for `Cn1c(N2CCN[C@H](CN)C2)nc(N)c(Sc2cccc(Cl)c2Cl)c1=O` [Example 197, (R)-6-amino-2-(3-(aminomethyl)piperazin-1-yl)-5-((2,3-dichlorophenyl)thio)-3-methylpyrimidin-4(3H)-one], the pIC50 in assay [1] is 5.82 to 7.35; in assay [2], 7.00 to 8.52.
Turning to `C[C@@H]1OCC2(CCN(c3cnc(Sc4ccc5ncn(Cc6cccc(S(=O)(=O)F)c6)c(=O)c5c4Cl)cn3)CC2)[C@@H]1N` [Example 19, 3-((6-((5-((3S,4S)-4-amino-3-methyl-2-oxa-8-azospiro[4.5]decan-8-yl)pyrazin-2-yl)thio)-5-chloro-4-oxoquinazolin-3(4H)-yl)methyl)benzenesulfonyl fluoride], the IC50 in assay [1] (1.5 h) was 45 to 1500 nM; in assay [2] it was less than 3 nM.
Take `COCCn1cnc2ccc(Sc3cnc(N4CCC5(CC4)Cc4scnc4[C@@H]5N)cn3)c(Cl)c2c1=O` [Example 150, 6-[5-[(4R)-4-aminospiro[4,6-dihydrocyclopenta[d]thiazole-5,4′-piperidin]-1′-yl]pyrazin-2-yl]sulfanyl-5-chloro-3-(2-methoxyethyl)quinazolin-4-one]: the pIC50 in assay [1] (1.5 h) was 5.82 to 7.35; in assay [2], greater than 8.52.
For `COCCn1cnc2ccc(Sc3ncc(N4CCC5(CC4)Cc4ncccc4[C@H]5N)nc3N)c(Cl)c2c1=O` [Example 134] the same measures were 5.82 to 7.35 and 7.00 to 8.52.
The like results for `CC(C)(O)Cn1cnc2ccc(Sc3ncc(N4CCC5(CC4)Cc4scnc4[C@H]5N)nc3N)c(Cl)c2c1=O` [Example 165, (S)-6-((3-amino-5-(4-amino-4,6-dihydrospiro[cyclopenta[d]thiazole-5,4′-piperidin]-1′-yl)pyrazin-2-yl)thio)-5-chloro-3-(2-hydroxy-2-methylpropyl)quinazolin-4(3H)-one] were, in that order, greater than 7.35 and greater than 8.52.
As for `C[C@@H]1OCC2(CCN(c3cnc(Sc4ccc5ncn(Cc6nccs6)c(=O)c5c4Cl)cn3)CC2)[C@@H]1N` [Example 35, 6-((5-((3S,4S)-4-amino-3-methyl-2-oxa-8-azaspiro[4.5]decan-8-yl)pyrazin-2-yl)thio)-5-chloro-3-(thiazol-2-ylmethyl)quinazolin-4(3H)-one], the pIC50 was greater than 7.35 in assay [1] (1.5 h) and greater than 8.52 in assay [2].
Take `COCCn1cnc2ccc(Sc3cnc(N4CCC5(CC4)Cc4ccc(O)cc4[C@H]5N)cn3)c(Cl)c2c1=O` [Example 163, (S)-6-((5-(1-amino-6-hydroxy-1,3-dihydrospiro(indene-2,4′-piperidin]-1′-yl)pyrazin-2-yl)thio)-5-chloro-3-(2-methoxyethyl)quinazolin-4(31-1)-one]: the pIC50 in assay [1] (1.5 h) was greater than 7.35; in assay [2], greater than 8.52.
Consider `Cn1c(N2CCN[C@@H](CN)C2)nc(N)c(Sc2cccc(Cl)c2Cl)c1=O` [Example 196], for which the values for the pIC50 in assay [1] (1.5 h) and in assay [2] were less than 5.82 and less than 7.00, respectively.
For `CC(C)(O)Cn1cnc2ccc(Sc3cnc(N4CCC5(CC4)Cc4ncccc4[C@@H]5N)cn3)c(Cl)c2c1=O` [Example 159, 6-[5-[(5R)-5-aminospiro[5,7-dihydrocyclopenta[b]pyridine-6,4′-piperidin]-1′-yl]pyrazin-2-yl]sulfanyl-5-chloro-3-(2-hydroxy-2-methylpropyl)quinazolin-4-one], the pIC50 in assay [1] (1.5 h) was greater than 7.35; in assay [2], greater than 8.52.
For the compound `C[C@@H]1OCC2(CCN(c3cnc(Sc4cccc(S(N)(=O)=O)c4Cl)c(N)n3)CC2)[C@@H]1N` [Example 12, 3-((3-amino-5-((3S,4S)-4-amino-3-methyl-2-oxa-8-azaspiro[4.5]decan-8-yl)pyrazin-2-yl)thio)-2-chlorobenzenesulfonamide], the pIC50 was 5.82 to 7.35 in assay [1] and 7.00 to 8.52 in assay [2].
For `C[C@@H]1OCC2(CCN(c3cnc(Sc4ccc5c(c4Cl)S(=O)(=O)N(Cc4ccccc4)C=N5)cn3)CC2)[C@@H]1N` [Example 124, 7-((5-((3S,4S)-4-amino-3-methyl-2-oxa-8-azaspiro[4,5]decan-8-yl)pyrazin-2-yl)thio)-2-benzyl-8-chloro-2H-benzo[e][1,2,4]thiadiazine 1,1-dioxide], the figures for the pIC50 in assay [1] (1.5 h) and in assay [2] were greater than 7.35 and greater than 8.52, respectively.
With `Cn1c(N2CCCN(CCN)CC2)nc(N)c(Sc2cccc(Cl)c2Cl)c1=O` [Example 200, 6-amino-2-(4-(2-aminoethyl)-1,4-diazepan-1-yl)-5-((2,3-dichlorophenyl)thio)-3-methylpyrimidin-4(3H)-one], the negative-log IC50 (pIC50) in assay [1] (1.5 h) is less than 5.82; in assay [2] it was less than 7.00.
For `CC1(CN)CCN(c2cnc(Sc3cccc(S(=O)(=O)F)c3Cl)cn2)CC1` [Example 6, 3-((5-(4-(aminomethyl)-4-methylpiperidin-1-yl)pyrazin-2-yl)thio)-2-chlorobenzenesulfonyl fluoride], the IC50 in assay [1] (1.5 h) lay within 45 to 1500 nM; in assay [2] it was 3 to 100 nM.
On to `CC1(CN)CCN(c2cnc(Sc3ccc4ncn(Cc5cccc(S(=O)(=O)F)c5)c(=O)c4c3Cl)cn2)CC1` [Example 16, 3-((6-((5-(4-(aminomethyl)-4-methylpiperidin-1-yl)pyrazin-2-yl)thio)-5-chloro-4-oxoquinazolin-3(4H)-yl)methyl)benzenesulfonyl fluoride], for which the IC50 is 45 to 1500 nM in assay [1] (1.5 h) and less than 3 nM in assay [2].
With `C[C@@H]1OCC2(CCN(c3cnc(Sc4ccc5ncn(Cc6ccc(N)nc6)c(=O)c5c4Cl)cn3)CC2)[C@@H]1N` [Example 48, 6-((5-((3S,4S)-4-amino-3-methyl-2-oxa-8-azaspiro[4.5]decan-8-yl)pyrazin-2-yl)thio)-3-((6-aminopyridin-3-yl)methyl)-5-chloroquinazolin-4(3H)-one], the pIC50 is greater than 7.35 in assay [1] (1.5 h) and greater than 8.52 in assay [2].
Take `Cn1c(N2CCN(CC(N)Cc3cccnc3)CC2)nc(N)c(Sc2cccc(Cl)c2Cl)c1=O` (stereo not shown) [Example 188, 6-amino-2-(4-(2-amino-3-(pyridin-3-yl)propyl)piperazin-1-yl)-5-((2,3-dichlorophenyl)thio)-3-methylpyrimidin-4(3H)-one]: the pIC50 in assay [1] (1.5 h) is less than 5.82; in assay [2] it was less than 7.00.
On to `Cc1nc2ccc(Sc3cnc(N4CCC(C)(N)CC4)cn3)c(Cl)c2s1` [Example 24, 1-(5-((7-chloro-2-methylbenzo[d]thiazol-6-yl)thio)pyrazin-2-yl)-4-methylpiperidin-4-amine], for which the pIC50 was less than 5.82 in assay [1] (1.5 h) and 7.00 to 8.52 in assay [2].
As for `C[C@@H]1OCC2(CCN(c3cnc(Sc4ccc5ncn(CCS(C)(=O)=O)c(=O)c5c4Cl)cn3)CC2)[C@@H]1N` [Example 82, 6-((5-((3S,4S)-4-amino-3-methyl-2-oxa-8-azaspiro[4.5]decan-8-yl)pyrazin-2-yl)thio)-5-chloro-3-(2-(methylsulfonyl)ethyl)quinazolin-4(3H)-one], the pIC50 in assay [1] (1.5 h) is greater than 7.35; in assay [2] it was greater than 8.52.
